According to publication PMC11775380, “Discovery of Novel Nav1.7-Selective Inhibitors with the 1H-Indole-3-Propionamide Scaffold for Effective Pain Relief” (Research, 2025):

What was measured:
[1] = test system: native K+ current (Kv channels) in DRG neurons; assay: Voltage-clamp recording of native K+ current in DRG neurons; format: cell-based; details: 10 μM; mouse DRG neurons
Description: To investigate the mechanism of action of WN2-R and facilitate animal model experiments, we used voltage-clamp recording to test the effects of WN2-R on the native Na^+-, K^+-, and Ca^2+-mediated currents in DRG neurons. […] Furthermore, the effects of WN2-R on membrane excitability were examined in small (<30 μm) DRG neurons from mice using current-clamp recordings.
DRG isolation and culture were performed according to our previous report. Briefly, C57BL/6 mice (weight 18 to 20 g, 6 to 8 weeks) were euthanized via cervical dislocation under anesthesia. Lumbar DRGs were isolated from the L4 to L5 segments of the lumbar spinal cord. The DRG neurons were subsequently dissociated through enzymatic digestion with collagenase (0.32 mg/ml) and trypsin (0.15 mg/ml) at 37 °C for 30 min, with intermittent shaking. After centrifugation at 800 rpm for 5 min at room temperature, the cells were seeded onto poly-L-lysine-coated coverslips and cultured in DMEM (Gibco) supplemented with 10% fetal bovine serum (Gibco). […]
For recording Nav currents of DRG neurons, the bath solution contains (in mM) 30 NaCl, 1 MgCl2, 1.8 CaCl2, 5 CsCl, 5 KCl, 25 D-glucose, 5 HEPES, 0.1 CdCl2, and TEA-Cl (pH 7.4 with NaOH), and the pipette solution contains (in mM) 135 CsCl, 10 NaCl, and 5 HEPES (pH 7.4 with CsOH). The Nav current program is recorded following the above method. […]

[2] = target: T1, hNav1.8 (Homo sapiens, UniProt Q9Y5Y9); assay: Subtype selectivity, patch clamp (ND7/23 cells); format: cell-based; details: 1 μM
T1 construct: expressed in transfected cells; host or cells: ND7/23
T1 sequence (Q9Y5Y9 whole entry): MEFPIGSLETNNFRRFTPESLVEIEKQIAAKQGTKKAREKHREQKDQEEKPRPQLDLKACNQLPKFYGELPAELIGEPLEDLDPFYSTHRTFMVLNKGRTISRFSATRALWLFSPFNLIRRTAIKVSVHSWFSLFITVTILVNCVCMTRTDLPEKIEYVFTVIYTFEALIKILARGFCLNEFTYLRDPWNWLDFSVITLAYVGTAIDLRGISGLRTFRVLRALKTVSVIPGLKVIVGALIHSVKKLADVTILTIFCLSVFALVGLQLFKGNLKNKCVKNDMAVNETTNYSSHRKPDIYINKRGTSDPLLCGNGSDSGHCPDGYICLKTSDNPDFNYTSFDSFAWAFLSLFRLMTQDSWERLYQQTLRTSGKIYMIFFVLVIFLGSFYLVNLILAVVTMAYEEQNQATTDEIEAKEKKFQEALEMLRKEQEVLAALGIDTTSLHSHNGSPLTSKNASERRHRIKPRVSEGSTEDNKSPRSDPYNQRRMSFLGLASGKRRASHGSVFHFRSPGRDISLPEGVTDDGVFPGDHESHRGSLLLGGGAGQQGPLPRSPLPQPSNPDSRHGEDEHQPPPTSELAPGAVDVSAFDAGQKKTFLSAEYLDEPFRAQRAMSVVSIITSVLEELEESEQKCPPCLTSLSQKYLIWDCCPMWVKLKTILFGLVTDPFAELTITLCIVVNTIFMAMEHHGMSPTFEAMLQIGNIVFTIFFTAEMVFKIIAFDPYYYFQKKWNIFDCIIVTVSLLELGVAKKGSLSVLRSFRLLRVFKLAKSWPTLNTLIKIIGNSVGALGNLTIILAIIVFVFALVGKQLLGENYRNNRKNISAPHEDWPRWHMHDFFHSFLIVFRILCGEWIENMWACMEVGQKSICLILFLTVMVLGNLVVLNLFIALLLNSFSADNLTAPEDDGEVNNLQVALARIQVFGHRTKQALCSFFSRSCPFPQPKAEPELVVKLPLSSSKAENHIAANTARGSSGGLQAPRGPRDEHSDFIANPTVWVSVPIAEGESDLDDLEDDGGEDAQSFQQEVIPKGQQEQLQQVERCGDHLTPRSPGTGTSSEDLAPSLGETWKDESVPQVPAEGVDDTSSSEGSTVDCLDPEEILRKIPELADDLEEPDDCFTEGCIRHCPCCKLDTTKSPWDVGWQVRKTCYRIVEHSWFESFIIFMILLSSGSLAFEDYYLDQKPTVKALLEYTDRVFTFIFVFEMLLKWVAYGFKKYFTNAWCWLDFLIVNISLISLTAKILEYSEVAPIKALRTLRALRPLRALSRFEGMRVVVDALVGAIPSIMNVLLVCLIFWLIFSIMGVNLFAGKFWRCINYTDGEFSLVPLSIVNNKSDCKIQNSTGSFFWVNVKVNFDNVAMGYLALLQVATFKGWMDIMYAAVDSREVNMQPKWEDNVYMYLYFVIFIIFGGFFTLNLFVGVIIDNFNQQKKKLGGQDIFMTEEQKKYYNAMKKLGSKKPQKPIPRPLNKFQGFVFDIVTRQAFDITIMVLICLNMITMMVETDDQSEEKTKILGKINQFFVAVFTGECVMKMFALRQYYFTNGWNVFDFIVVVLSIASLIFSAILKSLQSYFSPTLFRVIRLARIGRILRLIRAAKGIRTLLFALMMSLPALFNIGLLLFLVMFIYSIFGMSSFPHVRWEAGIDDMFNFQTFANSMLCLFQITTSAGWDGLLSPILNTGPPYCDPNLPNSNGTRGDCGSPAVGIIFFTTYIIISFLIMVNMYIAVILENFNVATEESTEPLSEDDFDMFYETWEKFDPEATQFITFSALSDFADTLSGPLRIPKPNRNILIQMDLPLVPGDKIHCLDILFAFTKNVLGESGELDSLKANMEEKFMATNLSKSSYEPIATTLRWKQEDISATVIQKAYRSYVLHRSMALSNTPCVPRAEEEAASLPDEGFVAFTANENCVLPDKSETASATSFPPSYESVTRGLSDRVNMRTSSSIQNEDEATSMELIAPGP
Description: VGSC inhibitors required credible subtype selectivity to void side effects caused by binding to nontarget subtypes. At a concentration of 1 μM, the inhibitory rates of WN2-R on hNav1.2, hNav1.3, hNav1.4, hNav1.5, mNav1.6, and hNav1.8 were determined (n = 3 to 6, Fig. 7A). […] To further evaluate the drug safety profile, high-dose acute toxicity experiments were conducted. Mice were administered a high dose of 30 mg/kg WN2-R through i.p. administration. The rotarod test, forced-swim test, and open field test were used to explore the effect of high-dose WN2-R on the motor ability of mice (n = 4). The rotarod test evaluated the drug's effect on motor coordination, the forced-swim test examined its impact on the overall motor system, and the open field test assessed the drug's influence on the motor and nervous systems. […]
Whole-cell patch-clamp recordings were conducted at 25 ± 2 °C, utilizing an EPC 10USB patch-clamp amplifier (HEKA Elektronik, Lambrecht, Germany). […] IC50 values were determined in HEK293T or ND7/23 cell lines by voltage clamping at −80 mV, followed by stepping to the V1/2 of inactivation for 8 s to facilitate compound binding.

Cc1ccc(Cn2cc([C@H](CC(=O)NCCN(C)C)c3ccc(F)cc3)c3ccccc32)cc1 [WN2-R]
Effect on native K+ current [1]: almost no effect
Inhibitory rate on hNav1.8 [2]: much lower than that on Nav1.7
